PMC8840040, “Pharmacokinetic Characterization of the DDAH1 Inhibitors ZST316 and ZST152 in Mice Using a HPLC-MS/MS Method” (Molecules, 2022)

Legend:
[1] = Urinary metabolites in 24 h urine by HPLC-MS/MS; assay type: in vivo, FVB mice
Experimental: The assessment of the urinary elimination after oral and intravenous administration, in the urine fraction collected 24 h post dose, is reported in Table 6. […] To further investigate this issue, we searched for the presence of urinary metabolites in the 24 h urine samples in one mouse per treatment group. We identified at least eight molecules most likely originating from the parent compounds (Table 7; see Supplementary Figure S1 for the hypothesized structures).
Mice were treated with ZST316 and ZST152 using a dose of 60 mg/Kg (oral gavage) and 30 mg/Kg (intravenous bolus). For pharmacokinetic sampling, blood was collected at 15 and 30 min, and 1, 3, 8, and 24 h post dose. Three mice were analyzed per each time point. After the animals were anesthetized with isoflurane, the blood was drained from the retro-orbital plexus into heparinized tubes, and then centrifuged for 10 min at 4000× g at 4 °C to separate plasma. A 24-h urine fraction was collected in three mice for each drug and route of administration. Plasma and urine samples were stored at −20 °C until analysis by HPLC-MS/MS.
[…] chromatography was performed using a series 200 HPLC system (Perkin Elmer, Waltham, MA, USA) under gradient conditions with separation on a HILIC column, 3 µm, 100 A, 2.1 × 150 mm (Waters, Milford, MA, USA), coupled with a 3 µm, 3.9 × 5.0 mm guard column of the same material at the flow rate of 0.2 mL/min. Gradient features: 10% mobile phase (MP) A (NH4HCO2 10 mM, 10% CH3CN, 0.1% HCOOH) and 90% MP B (CH3CN, 0.1% HCOOH) as the initial constant condition; then to 90% MP A in 6 min and the constant condition for 1.5 min. Return to the start condition in 0.5 min and conditioning for 5.5 min. Total run time: 13.5 min. Mass spectrometric detection was performed using an API 4000 triple quadrupole mass spectrometer (SCIEX, Framingham, MA, USA) supplied with a Turbo Ion Spray source set at 350 °C and −4200 V, analyzing biological samples with electrospray ionization (ESI) operating in negative ion mode. Purified air was used as nebulizer gas (Gas 1) and heater gas (Gas 2) and N2 was used as curtain gas and collision activated dissociation gas. They were set to 40, 50, 20, and 4 instrument units (psi), respectively. The declustering potential (DP) was set at −119 V and the collision exit potential (CXP) at –10 V. All parameters of the source were defined by direct infusion of ZST316 and ZST152 1 µg/mL in mobile phase B. The final quantification was carried out in Selected Reaction Monitoring (SRM) with the following transitions: m/z 307.9 → 208.0 (collision energy of −29.5 eV) for ZST316 and m/z 271.9 → 170.9 (collision energy −24.7 eV) for ZST152 (Figure 2 and Figure 3). Data were processed with the software package Analyst 1.6.2 (AB SCIEX).

human recombinant DDAH1 = test system: human recombinant DDAH1; design: method as in PMID 26420019; conditions: cited from earlier work; for IC50 / Ki: human recombinant DDAH1 expressed in HEK293T cells; for IC50: read-out: IC50 towards DDAH1; for Ki: read-out: Ki towards DDAH1
[2] = test system: triple-negative breast cancer cells; conditions: cited from earlier work; for suppression of vasculogenic mimicry: in vitro, triple-negative breast cancer cells
[3] = after intravenous ZST152, total dose 1.410 mg, mouse #1, 24 h urine
[4] = after oral ZST152, total dose 1.158 mg, mouse #3, 24 h urine
[5] = after intravenous ZST316, total dose 1.326 mg, mouse #1, 24 h urine
[6] = after oral ZST316, total dose 1.308 mg, mouse #3, 24 h urine

SMILES: COCCNC(=N)NCCC[C@H](N)c1noc(=O)[nH]1 [ZST152]
- % of Dose recovered in urine [1, 3]: 10.5%
- Amount Recovered in urine [1, 3]: 148 µg
- % of Dose recovered in urine [1, 4]: 6.5%
- Amount Recovered in urine [1, 4]: 75.0 µg
- IC50 (human recombinant DDAH1): 18 µM
- Ki (human recombinant DDAH1): 7 µM
- suppression of vasculogenic mimicry [2]: suppress vasculogenic mimicry

SMILES: COCCNC(=N)NCCC[C@H](N)C(=O)NS(C)(=O)=O [ZST316]
- % of Dose recovered in urine [1, 5]: 3.1%
- Amount Recovered in urine [1, 5]: 41.2 µg
- % of Dose recovered in urine [1, 6]: 2.2%
- Amount Recovered in urine [1, 6]: 28.9 µg
- IC50 (human recombinant DDAH1): 3 µM
- Ki (human recombinant DDAH1): 1 µM
- greater inhibitory activity towards DDAH1 compared to reference inhibitor L-257 (human recombinant DDAH1; vs L-257): 13 fold
- suppression of in vitro vasculogenic mimicry and migration ([2]; MDA-MD-231 cells, ref recent demonstration by our group): suppresses in vitro vasculogenic mimicry and migration
- suppression of vasculogenic mimicry [2]: suppress vasculogenic mimicry
